Reference: patent US11235018B2, “Composition for preventing or treating cancer” (OKCHUNDANG CO., LTD., priority 2018, dated 2022)
Marks after values point to notes of the source that are not given here.

How the values were obtained:
[1] = Histopathological change of submandibular lymph nodes; assay type: in vivo, mice; settings: single: gefitinib 120 mg/kg or SKOG 400 mg/kg, oral, 35 days
peritoneal NK cell = test: Peritoneal NK cell activity in NCI-H520 xenograft mice; assay type: in vivo; settings: single: gefitinib 120 mg/kg or SKOG 400 mg/kg, oral, 35 days
[2] = Submandibular lymph node weight in NCI-H520 xenograft mice; assay type: in vivo; settings: single: gefitinib 120 mg/kg or SKOG 400 mg/kg, oral, 35 days
[3] = Body weight and weight gain in NCI-H520 xenograft mice; assay type: in vivo; settings: single: gefitinib 120 mg/kg or SKOG 400 mg/kg
iNOS = test: Intratumoral iNOS immune response cells; assay type: in vivo, mice; settings: single: gefitinib 120 mg/kg or SKOG 400 mg/kg, oral, 35 days
COX-2 = test: Intratumoral COX-2 immune response cells; assay type: in vivo, mice; settings: single: gefitinib 120 mg/kg or SKOG 400 mg/kg, oral, 35 days
[4] = Histopathological change of periovarian fat; assay type: in vivo, mice; settings: single: gefitinib 120 mg/kg or SKOG 400 mg/kg, oral, 35 days
PARP = test: Intratumoral PARP immune response cells; assay type: in vivo, mice; settings: single: gefitinib 120 mg/kg or SKOG 400 mg/kg, oral, 35 days
IFN-γ = test: Serum IFN-γ level in NCI-H520 xenograft mice; assay type: in vivo; settings: single: gefitinib 120 mg/kg or SKOG 400 mg/kg, oral, 35 days
splenic NK cell = test: Splenic NK cell activity in NCI-H520 xenograft mice; assay type: in vivo; settings: single: gefitinib 120 mg/kg or SKOG 400 mg/kg, oral, 35 days
IL-10 = test: Splenic IL-10 level in NCI-H520 xenograft mice; assay type: in vivo; settings: single: gefitinib 120 mg/kg or SKOG 400 mg/kg, oral, 35 days
Caspase-3 = test: Intratumoral caspase-3 immune response cells; assay type: in vivo, mice; settings: single: gefitinib 120 mg/kg or SKOG 400 mg/kg, oral, 35 days
IL-6 = test: Serum IL-6 level in NCI-H520 xenograft mice; assay type: in vivo; settings: single: gefitinib 120 mg/kg or SKOG 400 mg/kg, oral, 35 days
[5] = test system: NCI-H520 tumor cell xenograft; test: Histopathological change of tumor mass (tumor cell volume, apoptotic cells); assay type: in vivo, mice; settings: single: gefitinib 120 mg/kg or SKOG 400 mg/kg, oral, 35 days
TNF-α [6] = test: Intratumoral TNF-α immune response cells; assay type: in vivo, mice; settings: single: gefitinib 120 mg/kg or SKOG 400 mg/kg, oral, 35 days
[7] = Spleen weight in NCI-H520 xenograft mice; assay type: in vivo; settings: single: gefitinib 120 mg/kg or SKOG 400 mg/kg, oral, 35 days
TNF-α [8] = test: Splenic TNF-α level in NCI-H520 xenograft mice; assay type: in vivo; settings: single: gefitinib 120 mg/kg or SKOG 400 mg/kg, oral, 35 days
[9] = test system: NCI-H520 tumor cell xenograft; test: Tumor volume in NCI-H520 xenograft mice; assay type: in vivo; settings: single: gefitinib 120 mg/kg or SKOG 400 mg/kg
[10] = Periovarian fat weight in NCI-H520 xenograft mice; assay type: in vivo; settings: single: gefitinib 120 mg/kg or SKOG 400 mg/kg, oral, 35 days
[11] = Histopathological change of spleen; assay type: in vivo, mice; settings: single: gefitinib 120 mg/kg or SKOG 400 mg/kg, oral, 35 days
[12] = test system: NCI-H520 tumor cell xenograft; test: Tumor weight in NCI-H520 xenograft mice; assay type: in vivo; settings: single: gefitinib 120 mg/kg or SKOG 400 mg/kg, oral, 35 days
IL-1β = test: Splenic IL-1β level in NCI-H520 xenograft mice; assay type: in vivo; settings: single: gefitinib 120 mg/kg or SKOG 400 mg/kg, oral, 35 days

Compound: COc1cc2ncnc(Nc3ccc(F)c(Cl)c3)c2cc1OCCCN1CCOCC1 [Gefitinib, N-(3-chloro-4-fluorophenyl)-7-methoxy-6-(3-morpholinopropoxy)quinazolin-4-amine]
- Number of intracortical follicles [1]: 5.38 ± 2.39^d /mm^2
- change of number of intracortical follicles in the submandibular lymph nodes compared with tumor xenograft control group [1]: −6.52%
- change of submandibular lymph node cortex thickness compared with tumor xenograft control group [1]: −3.84%
- change of submandibular lymph node overall thickness compared with tumor xenograft control group [1]: −2.55%
- cortex thickness [1]: 215.75 ± 43.93^d μm/lymph node
- submandibular lymph node overall thickness [1]: 501.50 ± 106.64^a μm/central region
- change of peritoneal NK cell activity compared with tumor xenograft control group (peritoneal NK cell): −7.43%
- Submandibular lymph nodes (absolute weight) [2]: 0.004 ± 0.001^d
- change in absolute submandibular lymph node weight compared with tumor xenograft control group [2]: −8.82%
- change in relative submandibular lymph node weight compared with tumor xenograft control group [2]: 1.85%
- submandibular lymph nodes (relative weight) [2]: 0.019 ± 0.006^e
- Body weight, administration initiation ([3]; baseline): 19.29 ± 1.29 g
- Actual body weight (excluding tumor weight) ([3]; oral, 35 days): 18.46 ± 0.77^ad g
- Body weight, sacrifice ([3]; oral, 35 days): 20.13 ± 0.76^fg
- Weight gain ([3]; oral, 35 days): −0.83 ± 0.98^ac g
- change of actual body weight excluding tumor weight compared with tumor xenograft group ([3]; oral, 35 days): −6.61%
- change of weight gain during administration period compared with tumor xenograft control group ([3]; oral, 35 days): −341.95%
- Percentage of immune-responsive cells, iNOS (iNOS): 12.07 %/tumor cells
- change of proportion of iNOS immune response cells in the tumor tissue compared with tumor xenograft control group (iNOS): −0.50%
- Percentage of immune-responsive cells, COX-2 (COX-2): 38.89 %/tumor cells
- change of proportion of COX-2 immune response cells in the tumor tissue compared with tumor xenograft control group (COX-2): −35.00%
- White fat cell average diameter [4]: 12.36 ± 1.95^d μm
- change of periovarian accumulation fat thickness compared with tumor xenograft control group [4]: −8.19%
- change of white fat cell average diameter compared with tumor xenograft control group [4]: −6.37%
- Percentage of immune-responsive cells, PARP (PARP): 46.98 %/tumor cells
- change of proportion of PARP immune response cells in the tumor tissue compared with tumor xenograft control group (PARP): 223.59%
- change of serum IFN-γ level compared with tumor xenograft control group (IFN-γ): −2.85%
- change of splenic NK cell activity compared with tumor xenograft control group (splenic NK cell): −6.32%
- Splenic IL-10 (Interleukin-10) level (IL-10): 25.58 ± 11.94^a
- change of splenic IL-10 level compared with tumor xenograft control group (IL-10): −3.53%
- Percentage of immune-responsive cells, Caspase-3 (Caspase-3): 40.60 %/tumor cells
- change of proportion of caspase-3 immune response cells in the tumor tissue compared with tumor xenograft control group (Caspase-3): 268.77%
- change of serum IL-6 level compared with tumor xenograft control group (IL-6): 6.25%
- Percentage of apoptotic cells [5]: 49.88%
- Tumor cell volume [5]: 56.28 %/mm^2
- change of proportion of apoptotic cells in the tumor tissue compared with tumor xenograft control group [5]: 560.23%
- change of proportion of tumor cells in the tumor tissue compared with tumor xenograft control group [5]: −29.01%
- Percentage of immune-responsive cells, TNF-α (TNF-α [6]): 7.28 %/tumor cells
- change of proportion of TNF-α immune response cells in the tumor tissue compared with tumor xenograft control group (TNF-α [6]): −6.19%
- Spleen (absolute weight) [7]: 0.051 ± 0.007^a
- Spleen (relative weight) [7]: 0.251 ± 0.036^a
- change of absolute spleen weight compared with tumor xenograft control group [7]: −7.13%
- change of relative spleen weight compared with tumor xenograft control group [7]: 4.11%
- Splenic TNF-α (Tumor necrosis factor-α) level (TNF-α [8]): 26.23 ± 10.81^a
- change of splenic TNF-α level compared with tumor xenograft control group (TNF-α [8]): −0.24%
- Tumor volume, start of administration [A] ([9]; baseline): 462.10 ± 105.87 mm^3
- Tumor volume change [B − A] ([9]; oral, 35 days): 2396.41 ± 329.84 ^a mm^3
- Tumor volume, at the time of sacrifice [B] ([9]; oral, 35 days): 2858.51 ± 377.01^a mm^3
- change in tumor volume during drug administration period compared with tumor xenograft control group ([9]; oral, five weeks): −60.18%
- Periovarian fat (absolute weight) [10]: 0.007 ± 0.002^d
- Periovarian fat (relative weight) [10]: 0.036 ± 0.011^e
- change of absolute periovarian fat weight compared with tumor xenograft control group [10]: −13.43%
- change of relative periovarian fat weight compared with tumor xenograft control group [10]: −2.79%
- Number of splenic white pulps [11]: 4.63 ± 1.85^a /mm^2
- Splenic white pulp diameter [11]: 187.63 ± 73.54^e μm/white pulp
- change of number of splenic white pulps compared with tumor xenograft control group [11]: −5.13%
- change of splenic overall thickness compared with tumor xenograft control group [11]: 0.42%
- change of splenic white pulp diameter compared with tumor xenograft control group [11]: −0.60%
- Tumor weight (absolute weight) [12]: 1.664 ± 0.292^f
- Tumor weight (relative weight) [12]: 8.274 ± 1.443^g
- change in absolute tumor weight compared with tumor xenograft control group [12]: −40.73%
- change in relative tumor weight compared with tumor xenograft control group [12]: −33.56%
- Splenic IL-1β (Interleukin-1β) level (IL-1β): 8.36 ± 1.96^a
- change of splenic IL-1β level compared with tumor xenograft control group (IL-1β): −3.18%
